From US20260091097A1, “COMBINATION TREATMENT REGIMES FOR TREATING CANCER” (Barinthus Biotherapeutics North America, Inc., priority 2022, published 2026)

Tests used:
Format in all cases: in vivo, mouse
[1] = system: neoAg-specific CD8+ T cells; assay: Flow cytometry of tetramer+ CD8+ T cells after SNP vaccination; conditions: IV administration after SNP-SC prime, still with anti-tumor efficacy
Procedure: For T cell tetramer analysis, cells were assessed for viability with LIVE/DEAD Fixable Blue Dead Cell Stain Kit (Invitrogen) in PBS containing 50 nM dasatinib (STEMCELL Technologies) for 30 min at room temperature. Samples were then washed and blocked with anti-CD16/CD32 (BD Biosciences). Cells were then stained with fluorescently conjugated tetramer in cell staining buffer (PBS and 2% FCS) containing 50 nM dasatinib to enhance staining. Cells were simultaneously stained with the following surface antibodies to: CD8 (clone 53-6.7), PD-1 (clone 29F.A12), Tim-3 (clone RMT3-23), CD44 (clone IM7), CD39 (clone Duha59), and NKG2A (clone 16A11) purchased from BioLegend and CD4 (clone RM4-4) purchased from BD Biosciences. After a 1-h incubation at 4° C., cells were washed twice in cell staining buffer, fixed and permeabilized using the FoxP3 transcription factor staining buffer set (eBioscience). […]
To assess whether there are differences in the magnitude of neoAg-specific CD8^+ T cells after SNP-SC or SNP-IV boost, whole blood was sampled on day 21, a week after the boost and measured the tetramer^+ population by flow cytometry (FIG. 1G). […]
As markers of exhaustion and antigen experience on CD8^+ T cells are important for improving the therapeutic effects of immune checkpoint blockade, the expression of PD-1, TIM-3 and NKG2A post vaccination were assessed. […]

cDC1s = assay: Flow cytometry of DC numbers and maturation after vaccination; conditions: IV route; comparable to SNP-IV
Procedure: For the mononuclear phagocyte uptake analysis, cells were assessed for viability with the LIVE/DEAD Fixable Blue Dead Cell Stain Kit for 10 min at room temperature. After FcR blocking, cells were stained for 20 minutes at room temperature with the following surface antibodies: NK1.1 (clone PK136), CD19 (clone 1D3), CD3 (clone 145-2C11), Ly6G (clone 1A8), CD45 (clone 30-F11), Siglec-H (clone 440c), CD86 (clone GL1), CD11c (clone L3), CD80 (clone 16-10A1), B220 (clone RA3-6B2), CD64 (clone X54-5/7.1), CD11b (clone MI/70) and Ly6C (clone AL-21) purchased from BD Biosciences, CCR7 (clone 4B12), MHC class II (I-A/I-E, clone M5/114.15.2), CD169 (clone 3D6.112) and XCR1 (clone ZET) purchased from BioLegend, and CD172a (clone P84) from Thermo Fisher Scientific. The stain was washed off and cells were then fixed in 0.5% PFA in PBS until they were acquired on an LSRFortessa X50 (BD Biosciences) using the FACSDiva software v8.0.1 (BD Biosciences).
Given the systemic distribution of vaccine after SNP-IV but not SNP-SC, the levels of pro-inflammatory cytokines in the sera of mice were assessed at 6 hours after vaccination (FIG. 3F). High levels of systemic IFNα and IL-12 were measured by ELISAs after SNP-IV, especially at the higher dose of 32 nmol that is used in the therapeutic studies, compared to SNP-SC (FIG. 3F). […]

MC38 tumors = assay: Therapeutic MC38 tumor model, SNP-7/8a prime day 7 and boost day 14 together with anti-PD-L1; conditions: SNP-SC (Reps1) prime, IV boost 7 days later without tumor antigen
Procedure: For each tumor implantation, a frozen cell aliquot was thawed and cultured in MC38 media at 37° C. and 5% CO2, passaged once and collected using trypsin EDTA (Gibco). Then, […] in sterile PBS per mouse were implanted subcutaneously on the right flank. Tumors were measured twice a week using digital calipers. Tumor volume was estimated using the formula: (tumor volume=short×short×long/2). Animals were killed when tumors surpassed 1,000 mm^3.
Mice were implanted with MC38 tumors on the subcutaneous flank and were treated on day 7 (prime) and day 14 (boost) with SNP-7/8a containing Reps1, an MC38 neoAg, together with anti-PD-L1 (FIG. 1A). […] To confirm and extend these findings in a different tumor model, mice were implanted with TC-1 tumors and treated with SNP-7/8a containing HPV E6 antigen.
To assess the requirement for antigen at the time of boost, mice were primed with SNP-SC containing Reps1, followed by SNP-IV containing an irrelevant antigen (FIG. 1E).

Substance: polyIC:LC
- CD8+ T cell responses compared to the other vaccinated groups [1]: ten-fold lower
- DC maturation in the spleen and tumor-draining LN (cDC1s): able to induce DC maturation
- Tumor growth (MC38 tumors): significantly mediate tumor regression and prolong survival
